Experimental data reported in ChEMBL document CHEMBL1134304, “Discovery of novel p-arylthio cinnamides as antagonists of leukocyte function-associated antigen-1/intercellular adhesion molecule-1 interaction. 4. Structure-activity relationship of substituents on the benzene ring of the cinnamide” (J Med Chem, 2001).

Legend:
Integrin alpha-L [1] = target: T1, Integrin alpha-L (Homo sapiens, UniProt P20701); assay: Inhibition of intercellular adhesion molecule-1 (ICAM-1) binding to recombinant LFA-1, range(140-150)
T1 sequence (P20701 whole entry): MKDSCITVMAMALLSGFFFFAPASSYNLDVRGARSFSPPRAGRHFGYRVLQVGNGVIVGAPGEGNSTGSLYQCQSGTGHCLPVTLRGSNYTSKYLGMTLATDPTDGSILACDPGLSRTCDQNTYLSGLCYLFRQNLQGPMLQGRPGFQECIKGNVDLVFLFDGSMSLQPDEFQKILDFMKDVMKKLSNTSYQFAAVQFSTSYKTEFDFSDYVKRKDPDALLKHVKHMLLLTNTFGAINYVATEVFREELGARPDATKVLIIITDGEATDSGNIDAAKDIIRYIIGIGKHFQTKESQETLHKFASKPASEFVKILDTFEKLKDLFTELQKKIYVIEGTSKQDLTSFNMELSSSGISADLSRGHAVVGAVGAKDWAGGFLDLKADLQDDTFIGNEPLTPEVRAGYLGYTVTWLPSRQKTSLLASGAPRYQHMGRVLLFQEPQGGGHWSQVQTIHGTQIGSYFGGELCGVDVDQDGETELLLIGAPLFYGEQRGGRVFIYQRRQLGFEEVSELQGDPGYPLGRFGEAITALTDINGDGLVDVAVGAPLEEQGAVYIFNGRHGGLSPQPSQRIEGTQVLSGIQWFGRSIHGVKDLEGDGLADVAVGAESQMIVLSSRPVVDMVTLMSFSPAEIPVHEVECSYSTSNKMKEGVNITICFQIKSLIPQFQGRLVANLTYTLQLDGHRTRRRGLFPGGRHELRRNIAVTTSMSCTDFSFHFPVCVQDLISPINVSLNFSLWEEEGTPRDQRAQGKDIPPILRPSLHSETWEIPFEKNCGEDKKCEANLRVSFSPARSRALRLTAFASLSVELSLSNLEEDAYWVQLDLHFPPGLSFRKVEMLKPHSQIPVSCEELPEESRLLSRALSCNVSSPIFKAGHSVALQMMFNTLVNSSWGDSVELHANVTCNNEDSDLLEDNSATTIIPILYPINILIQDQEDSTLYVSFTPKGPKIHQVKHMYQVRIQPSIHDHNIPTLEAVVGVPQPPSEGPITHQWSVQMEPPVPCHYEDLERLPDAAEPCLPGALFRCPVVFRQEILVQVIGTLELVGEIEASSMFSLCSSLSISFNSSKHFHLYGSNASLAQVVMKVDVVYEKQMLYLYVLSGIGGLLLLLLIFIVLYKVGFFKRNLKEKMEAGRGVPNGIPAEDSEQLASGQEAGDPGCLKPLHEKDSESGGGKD

Integrin alpha-L [2] = target: T1, Integrin alpha-L; assay: Inhibition of intercellular adhesion molecule-1 (ICAM-1) binding to recombinant LFA-1, range (5-8)
[3] = target: T2, Intercellular adhesion molecule (ICAM-1), Integrin alpha-L/beta-2 (Homo sapiens, UniProt P05107+P20701); assay: Inhibition of LFA-1 mediated JY-8 cell adhesion to ICAM-1, range (2-9); assay type: functional, cell-based
T2 sequence (P05362 whole entry, one chain of several, further chain): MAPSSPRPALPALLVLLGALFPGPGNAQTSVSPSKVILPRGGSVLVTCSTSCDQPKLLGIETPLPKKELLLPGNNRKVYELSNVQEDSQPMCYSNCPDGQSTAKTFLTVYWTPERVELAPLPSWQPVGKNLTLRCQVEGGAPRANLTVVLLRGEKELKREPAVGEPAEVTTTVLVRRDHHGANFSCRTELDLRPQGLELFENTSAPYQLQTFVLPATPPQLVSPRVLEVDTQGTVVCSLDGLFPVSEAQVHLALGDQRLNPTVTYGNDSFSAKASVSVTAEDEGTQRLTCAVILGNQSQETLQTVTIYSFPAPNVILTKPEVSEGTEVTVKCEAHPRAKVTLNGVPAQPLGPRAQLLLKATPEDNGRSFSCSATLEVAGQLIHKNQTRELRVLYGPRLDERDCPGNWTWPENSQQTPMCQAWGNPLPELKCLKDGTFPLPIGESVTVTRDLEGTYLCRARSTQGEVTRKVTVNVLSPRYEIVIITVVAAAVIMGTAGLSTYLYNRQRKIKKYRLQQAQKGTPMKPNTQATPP
T2 sequence (P05107 whole entry, one chain of several): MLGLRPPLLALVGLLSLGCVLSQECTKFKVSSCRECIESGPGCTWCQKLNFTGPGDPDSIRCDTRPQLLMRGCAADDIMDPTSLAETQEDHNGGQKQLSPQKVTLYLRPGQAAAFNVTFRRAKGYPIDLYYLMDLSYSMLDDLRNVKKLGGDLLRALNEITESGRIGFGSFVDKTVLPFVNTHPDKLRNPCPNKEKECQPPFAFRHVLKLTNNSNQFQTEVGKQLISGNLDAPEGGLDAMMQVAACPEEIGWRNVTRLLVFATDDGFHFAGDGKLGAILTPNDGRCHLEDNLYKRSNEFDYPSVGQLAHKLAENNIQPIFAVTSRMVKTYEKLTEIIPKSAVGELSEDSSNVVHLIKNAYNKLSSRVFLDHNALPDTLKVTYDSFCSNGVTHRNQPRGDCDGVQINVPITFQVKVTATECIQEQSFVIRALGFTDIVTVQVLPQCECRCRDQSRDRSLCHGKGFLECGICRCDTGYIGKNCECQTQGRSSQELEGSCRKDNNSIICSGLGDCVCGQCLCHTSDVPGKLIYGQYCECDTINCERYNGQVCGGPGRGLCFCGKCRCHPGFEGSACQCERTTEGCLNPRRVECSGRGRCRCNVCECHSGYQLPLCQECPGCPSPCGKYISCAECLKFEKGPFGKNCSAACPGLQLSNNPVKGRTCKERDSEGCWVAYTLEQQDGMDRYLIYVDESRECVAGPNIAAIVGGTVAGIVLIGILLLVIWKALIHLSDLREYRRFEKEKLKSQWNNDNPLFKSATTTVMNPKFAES

Integrin alpha-L [4] = target: T1, Integrin alpha-L; assay: Inhibition of intercellular adhesion molecule-1 (ICAM-1) binding to recombinant LFA-1, range (6-12)
[5] = target: T2, Intercellular adhesion molecule (ICAM-1), Integrin alpha-L/beta-2; assay: Inhibition of LFA-1 mediated JY-8 cell adhesion to ICAM-1, range (2-30); assay type: functional, cell-based
Integrin alpha-L [6] = target: T1, Integrin alpha-L; assay: Inhibition of intercellular adhesion molecule-1 (ICAM-1) binding to recombinant LFA-1, range(5-5)
[7] = target: T2, Intercellular adhesion molecule (ICAM-1), Integrin alpha-L/beta-2; assay: Inhibition of LFA-1 mediated JY-8 cell adhesion to ICAM-1, range(3-10); assay type: functional, cell-based
Integrin alpha-L [8] = target: T1, Integrin alpha-L; assay: Inhibition of intercellular adhesion molecule-1 (ICAM-1) binding to recombinant LFA-1
Integrin alpha-L [9] = target: T1, Integrin alpha-L; assay: Inhibition of intercellular adhesion molecule-1 (ICAM-1) binding to recombinant LFA-1, range (3700-3800)
Integrin alpha-L [10] = target: T1, Integrin alpha-L; assay: Inhibition of intercellular adhesion molecule-1 (ICAM-1) binding to recombinant LFA-1, range (6-10)
[11] = target: T2, Intercellular adhesion molecule (ICAM-1), Integrin alpha-L/beta-2; assay: Inhibition of LFA-1 mediated JY-8 cell adhesion to ICAM-1, range (3-10); assay type: functional, cell-based
[12] = target: T2, Intercellular adhesion molecule (ICAM-1), Integrin alpha-L/beta-2; assay: Inhibition of LFA-1 mediated JY-8 cell adhesion to ICAM-1, range (2-2); assay type: functional, cell-based
Integrin alpha-L [13] = target: T1, Integrin alpha-L; assay: Inhibition of intercellular adhesion molecule-1 (ICAM-1) binding to recombinant LFA-1, range (4-7)
Integrin alpha-L [14] = target: T1, Integrin alpha-L; assay: Inhibition of intercellular adhesion molecule-1 (ICAM-1) binding to recombinant LFA-1, range (80-110)
Integrin alpha-L [15] = target: T1, Integrin alpha-L; assay: Inhibition of intercellular adhesion molecule-1 (ICAM-1) binding to recombinant LFA-1, range (2500-11500)
Integrin alpha-L [16] = target: T1, Integrin alpha-L; assay: Inhibition of intercellular adhesion molecule-1 (ICAM-1) binding to recombinant LFA-1, range (3600-5100)
Mus musculus [17] = assay: Inhibition of allergen induced total cell influx in mouse lung at 1 mg/kg; assay type: functional
[18] = target: T3, Intercellular adhesion molecule (ICAM-1), Integrin alpha-L/beta-2 (Homo sapiens) (UniProt P20701+P05362+P05107); details: Rattus norvegicus
[19] = target: T3, Intercellular adhesion molecule (ICAM-1), Integrin alpha-L/beta-2 (Homo sapiens); details: Rattus norvegicus; remark: listed apart in the source
Mus musculus [20] = assay: Inhibition of allergen induced neutrophil influx in mouse lung at 10 mg/kg; assay type: functional
Mus musculus [21] = assay: Inhibition of allergen induced total cell influx in mouse lung at 10 mg/kg; assay type: functional
Mus musculus [22] = assay: Inhibition of allergen induced neutrophil influx in mouse lung at 1 mg/kg; assay type: functional
Integrin alpha-L [23] = target: T1, Integrin alpha-L
Mus musculus [24] = assay: Inhibition of allergen induced total cell influx in mouse lung at 3 mg/kg; assay type: functional
Mus musculus [25] = assay: Inhibition of allergen induced neutrophil influx in mouse lung at 3 mg/kg; assay type: functional
[26] = target: T2, Intercellular adhesion molecule (ICAM-1), Integrin alpha-L/beta-2
Integrin alpha-L [27] = target: T1, Integrin alpha-L; assay: Inhibition of intercellular adhesion molecule-1 (ICAM-1) binding to recombinant LFA-1, range(6-13)
[28] = target: T2, Intercellular adhesion molecule (ICAM-1), Integrin alpha-L/beta-2; assay: Inhibition of LFA-1 mediated JY-8 cell adhesion to ICAM-1; assay type: functional, cell-based

SMILES: O=C(O)C1CCN(C(=O)/C=C/c2ccc(Sc3ccc4c(c3)OCCO4)c(Cl)c2)CC1
- IC50 (Integrin alpha-L [1]): 145 nM

SMILES: COc1ccccc1Sc1ccc(/C=C/C(=O)N2CCC(C(=O)O)CC2)c(C(F)(F)F)c1Cl
- IC50 (Integrin alpha-L [2]): 6 nM
- IC50 [3]: 4 nM

SMILES: COc1ccccc1Sc1ccc(/C=C/C(=O)N2CCC(C(=O)O)CC2)c(Cl)c1Cl
- IC50 (Integrin alpha-L [4]): 8 nM
- IC50 [5]: 8 nM

SMILES: Cn1ccc2cc(Sc3ccc(/C=C/C(=O)N4CCC(C(=O)O)CC4)c(C(F)(F)F)c3C(F)(F)F)ccc21
- IC50 (Integrin alpha-L [6]): 5 nM
- IC50 [7]: 5 nM

SMILES: O=C(/C=C/c1ccc(Sc2cccc(Cl)c2Cl)cc1)N1CCOCC1
- IC50 (Integrin alpha-L [8]): 9100 nM

SMILES: CC(=O)N1CCN(C(=O)/C=C/c2ccc(Sc3cccc(Cl)c3Cl)c(S(=O)(=O)N(C)C)c2)CC1
- IC50 (Integrin alpha-L [9]): 3750 nM

SMILES: COc1ccccc1Sc1ccc(/C=C/C(=O)N2CCOCC2)c(C(F)(F)F)c1Cl
- IC50 (Integrin alpha-L [10]): 8 nM
- IC50 [11]: 5 nM

SMILES: COc1ccccc1Sc1cc(C)c(/C=C/C(=O)N2CCC(C(=O)O)CC2)cc1Cl
- IC50 (Integrin alpha-L [8]): > 20000 nM

SMILES: O=C(O)C1CCN(C(=O)/C=C/c2ccc(Sc3ccc4c(c3)OCCO4)c(Cl)c2C(F)(F)F)CC1
- IC50 [12]: 2 nM
- IC50 (Integrin alpha-L [13]): 5 nM

SMILES: COc1ccccc1Sc1ccc(/C=C/C(=O)N2CCC(C(=O)O)CC2)c(C)c1
- IC50 (Integrin alpha-L [8]): > 20000 nM

SMILES: COc1ccccc1Sc1ccc(/C=C/C(=O)N2CCOCC2)c(C)c1C
- IC50 (Integrin alpha-L [14]): 90 nM

SMILES: COc1ccccc1Sc1ccc(/C=C/C(=O)N2CCN(C(C)=O)CC2)c(F)c1
- IC50 (Integrin alpha-L [15]): 3900 nM

SMILES: COc1ccccc1Sc1cc(Cl)c(/C=C/C(=O)N2CCC(C(=O)O)CC2)cc1Cl
- IC50 (Integrin alpha-L [8]): > 20000 nM

SMILES: CC(=O)N1CCN(C(=O)/C=C/c2ccc(Sc3ccc(Cl)cc3Cl)cc2)CC1
- IC50 (Integrin alpha-L [16]): 4300 nM

SMILES: O=C(O)C1CCN(C(=O)/C=C/c2cc(Cl)c(Sc3ccc4c(c3)OCCO4)c(C(F)(F)F)c2)CC1
- IC50 (Integrin alpha-L [8]): > 20000 nM

SMILES: Cn1ccc2cc(Sc3ccc(/C=C/C(=O)N4CCC(C(=O)O)CC4)c(Cl)c3Cl)ccc21
- Total cells (Mus musculus [17]): 291 number ul-1
- Polymorphonuclear cells [18]: 7.48
- Polymorphonuclear cells [19]: 4.88
- Neutrophils (Mus musculus [20]): 30%
- Total cells (Mus musculus [21]): 189 number ul-1
- Neutrophils (Mus musculus [22]): 36%
- IC50 (Integrin alpha-L [23]): 6 nM
- Total cells (Mus musculus [24]): 147 number ul-1
- Neutrophils (Mus musculus [25]): 31%
- IC50 [26]: 4 nM

SMILES: COc1ccccc1Sc1ccc(/C=C/C(=O)N2CCOCC2)c(Cl)c1Cl
- IC50 (Integrin alpha-L [27]): 10 nM
- IC50 [28]: 6 nM
